What all share (assay type): cell-based, human
One assay deals with irradiated HaCaT cells. Description: Autophagy, mRFP-GFP-LC3 infection study and LC3 II Western blotting. As to conditions: 15 µM RIFSP-2, Western blotting. The text has this:
Figure 4 MUFAs facilitate ionizing radiation‐induced STING activation, which is disrupted by RIFSP‐2. A) Bioinformatic analysis of the connection between specific binding proteins of RIFSP‐2 (green nodes) and STING (red nodes) in irradiated skin cells. B) Detection of the phosphorylation of STING in RIFSP‐2‐treated and irradiated HaCaT cells through IP analysis. C) Detection of the phosphorylation of TBK1 in RIFSP‐2‐treated primary skin cells from STING wild type mice and depletion ones through Western blotting analysis. D) Investigation of the interaction between STING and RIFSP‐2 in irradiated HaCaT cells based on the established Avidin‐Biotin‐RIFSP‐2 system. E) Volcano plots of differences between lipid class in irradiated HaCaT cells pretreated with RIFSP‐2 or not. F) Influence of LPC (18:1) and RIFSP‐2 in STING downstream signals in irradiated HaCaT cells through Western blotting analysis. G) Influence of LPC (18:1) and RIFSP‐2 in STING downstream inflammatory factors in irradiated HaCaT and RAW 264.7 cells through ELISA assays. […] J) Alteration of biomarkers for autophagy and pyroptosis in irradiated HaCaT cells pretreated with 15 µM RIFSP‐2 in combination with H151 or MF438, detected by Western blotting. *P < 0.05 and **P < 0.01, compared with the control group. […]

A further assay has as its system irradiated skin cells. Description: LDH release and JC-1 staining with H151. The note with it: RIFSP-2 15 µM. The text has this:
Next, we investigated whether suppression of the SCD1‐MUFA‐STING axis by RIFSP‐2 accounts for its protective effect against radiation injury in skin cells. […] Besides, Sting knockout dramatically limited the clonogenic formation ability after administration of RIFSP‐2 (Figure S4F, Supporting Information).
Figure 5 RIFSP‐2 mitigates radiation injury in a STING‐related manner. A) Cell proliferation and death assays for influence of RIFSP‐2 in primary skin cells from STING‐depleted and wild‐type mice detected by CCK‐8 and LDH analysis. B) LDH analysis of irradiated and nonirradiated skin cells pretreated with 15 µM RIFSP‐2 in combination with H151 or not. […]
A clonogenic survival assay of skin cells was performed as previously reported (1). […] Colonies consisting of 50 or more cells were counted as a clone. The relative clonogenic survival fraction was calculated using ImageJ software as previously reported […]
Cells were seeded in a 96-well plate at a density of 1 X 10^4 cells per well. […] In vitro viability was measured using the Cell Counting Kit-8 (CCK-8) (Dojindo Laboratories, Kumamoto, Japan).
Optical density was measured at 450 nm using a microplate reader (Biotek, Winooski, VT).
Cell death was measured by the level of LDH released into the supernatant using an LDH cytotoxicity assay kit (Beyotime, Nantong, China) according to the manufacturer’s instructions. […]
A general note: Release of lactate dehydrogenase indicates damage to the cell membrane.

Assay [1] relates to skin cells. Kind of assay: BODIPY 493/503 probe staining, neutral lipid droplets. As to conditions: pretreatment. The procedure:
(§1) Figure 3 RIFSP‐2 restrained SCD1‐mediated biogenesis of MUFA in irradiated skin cells. A) Schematic showing the proteomic analysis performed to investigate the interactome of RIFSP‐2 in irradiated skin cells, as determined by liquid chromatography with tandem mass spectrometry (LC–MS/MS), based on the Avidin‐Biotin‐RIFSP‐2 system. B) Bradford staining of proteins pulled down with Biotin‐RIFSP‐2 and Venn diagram showing common and specific interactomes detected by LC–MS/MS and representative proteins. C) The enriched functions of RIFSP‐2 interactomes in irradiated skin cells based on Gene Ontology (GO) molecular function analysis. D) Colocalization analysis showing FITC‐RIFSP‐2 (green) and ER‐Tracker (red) in irradiated HaCaT cells. E) Changes in neutral lipid droplet formation in irradiated skin cells treated with RIFSP‐2 detected via BODIPY 493/503 probe staining. F) Verification of the interaction between RIFSP‐2 and SCD1 through immunoprecipitation (IP) analysis. G) Molecular simulation of the interaction between RIFSP‐2 and SCD1. […] M–P) Influence of the SCD1 inhibitor MF438 on the neutral lipid droplet formation, ferroptosis, and apoptosis of irradiated skin cells pretreated with RIFSP‐2, as detected by BODIPY 493/503 probe staining, BODIPY 581/591 C11 probe staining and AV/PI staining. *P < 0.05 and **P < 0.01, compared with the control group. […]

In assay [2] the test system is skin cells. Description: BODIPY 581/591 C11 probe (ferroptosis) and AV/PI staining. How it is done:
as §1, with “[…],” for “ferroptosis, and apoptosis of irradiated skin cells pretreated with RIFSP‐2,”

In assay [3] the test system is STING phosphorylation in irradiated skin cells. Description: STING phosphorylation by IP analysis. The note with it: irradiated skin cells (HaCaT). From the text: Considering the localization of RIFSP‐2 in ER, we then investigated the potential connection between RIFSP‐2 and STING. First, we adopted a proteomic analysis to investigated the interactomes of STING in HaCaT cells, and identified 136 specific proteins in response to radiation. Then, strong connections between specific interactomes for RIFSP‐2 and STING in irradiated skin cells were established in protein interactive analysis, with confidence score > 0.7 (high confidence) (Figure 4A).
Figure 4 MUFAs facilitate ionizing radiation‐induced STING activation, which is disrupted by RIFSP‐2. A) Bioinformatic analysis of the connection between specific binding proteins of RIFSP‐2 (green nodes) and STING (red nodes) in irradiated skin cells. B) Detection of the phosphorylation of STING in RIFSP‐2‐treated and irradiated HaCaT cells through IP analysis. C) Detection of the phosphorylation of TBK1 in RIFSP‐2‐treated primary skin cells from STING wild type mice and depletion ones through Western blotting analysis. […] J) Alteration of biomarkers for autophagy and pyroptosis in irradiated HaCaT cells pretreated with 15 µM RIFSP‐2 in combination with H151 or MF438, detected by Western blotting. *P < 0.05 and **P < 0.01, compared with the control group. […]
Cells were subjected to indicated treatments. […] The protein level was detected by the indicated antibodies with Western blotting analysis.

Consider `CCc1ccc(NC(=O)Nc2c[nH]c3ccccc23)cc1` [H151], for which the “influence of pretreatment on the increase in LC3 II levels induced by RIFSP-2” value in the assay on irradiated HaCaT cells is “not”. Further, in the assay on irradiated skin cells, the LDH release result is reported as “attenuated LDH release”.
As for `Cc1nnc(-c2ccc(N3CCC(Oc4ccccc4C(F)(F)F)CC3)nn2)s1` [MF‐438], the “formation of neutral lipid droplets” value in the assay on skin cells [1] is “effectively promoted the formation of neutral lipid droplets”. The “influence of pretreatment on the RIFSP-2 effects on ferroptosis and AV staining” value with skin cells [2] is “diminished these effects”. Also, the STING phosphorylation result in assay [3] is recorded as “significant reduction in STING phosphorylation”. The “influence of pretreatment on the increase in LC3 II levels induced by RIFSP-2” value in the assay on irradiated HaCaT cells is recorded as “dramatically limited the increase in LC3 II levels”.

The values are drawn from PMC11220654, “A Frog Skin‐Derived Peptide Targeting SCD1 Exerts Radioprotective Effects Against Skin Injury by Inhibiting STING‐Mediated Inflammation” (Advanced Science, 2024).
